Measured values taken from ChEMBL document CHEMBL3853300, “Synthesis of α-santonin derived acetyl santonous acid triazole derivatives and their bioevaluation for T and B-cell proliferation” (Eur J Med Chem, 2016).

How the values were obtained:
Mus musculus [1] = species on record: Mus musculus; assay: Cytotoxicity against Balb/c mouse B cells assessed as decrease in cell viability at 100 uM after 48 hrs by MTT assay; format: toxicity, cell-based
Mus musculus [2] = species on record: Mus musculus; assay: Cytotoxicity against Balb/c mouse B cells assessed as decrease in cell viability at 10 uM after 48 hrs by MTT assay; format: toxicity, cell-based
Mus musculus [3] = species on record: Mus musculus; assay: Cytotoxicity against Balb/c mouse B cells assessed as decrease in cell viability at 1 uM after 48 hrs by MTT assay; format: toxicity, cell-based
Mus musculus [4] = species on record: Mus musculus; assay: Cytotoxicity against Balb/c mouse T cells assessed as decrease in cell viability at 100 uM after 48 hrs by MTT assay; format: toxicity, cell-based
Mus musculus [5] = species on record: Mus musculus; assay: Cytotoxicity against Balb/c mouse T cells assessed as decrease in cell viability at 10 uM after 48 hrs by MTT assay; format: toxicity, cell-based
Mus musculus [6] = species on record: Mus musculus; assay: Cytotoxicity against Balb/c mouse T cells assessed as decrease in cell viability at 1 uM after 48 hrs by MTT assay; format: toxicity, cell-based
[7] = Immunosuppressive activity in Balb/c mouse T cells assessed as inhibition of ConA-induced cell proliferation at 100 uM after 48 hrs by MTT assay relative to control; format: functional
[8] = Immunosuppressive activity in Balb/c mouse B cells assessed as inhibition of LPS-induced cell proliferation at 100 uM after 48 hrs by MTT assay relative to control; format: functional
[9] = Immunosuppressive activity in Balb/c mouse B cells assessed as inhibition of LPS-induced cell proliferation at 10 uM after 48 hrs by MTT assay relative to control; format: functional
[10] = Immunosuppressive activity in Balb/c mouse B cells assessed as inhibition of LPS-induced cell proliferation at 1 uM after 48 hrs by MTT assay relative to control; format: functional
T-cell = assay: Immunosuppressive activity in Balb/c mouse T cells assessed as inhibition of ConA-induced cell proliferation after 48 hrs by MTT assay relative to control; format: functional, cell-based
[11] = Immunosuppressive activity in Balb/c mouse T cells assessed as inhibition of ConA-induced cell proliferation at 1 uM after 48 hrs by MTT assay relative to control; format: functional
[12] = Immunostimulatory activity in Balb/c mouse T cells assessed as induction of ConA-induced cell proliferation at 10 uM after 48 hrs by MTT assay relative to control; format: cell-based
B = assay: Immunosuppressive activity in Balb/c mouse B cells assessed as inhibition of LPS-induced cell proliferation after 48 hrs by MTT assay relative to control; format: functional, cell-based
[13] = Immunosuppressive activity in Balb/c mouse T cells assessed as inhibition of ConA-induced cell proliferation at 10 uM after 48 hrs by MTT assay relative to control; format: functional
[14] = Immunostimulatory activity in Balb/c mouse B cells assessed as induction of LPS-induced cell proliferation at 1 uM after 48 hrs by MTT assay relative to control; format: cell-based
[15] = Immunostimulatory activity in Balb/c mouse T cells assessed as induction of ConA-induced cell proliferation at 1 uM after 48 hrs by MTT assay relative to control; format: cell-based
[16] = Immunostimulatory activity in Balb/c mouse B cells assessed as induction of LPS-induced cell proliferation at 100 uM after 48 hrs by MTT assay relative to control; format: cell-based
[17] = Immunostimulatory activity in Balb/c mouse B cells assessed as induction of LPS-induced cell proliferation at 10 uM after 48 hrs by MTT assay relative to control; format: cell-based
[18] = Immunosuppressive activity in Balb/c mouse B cells assessed as inhibition of LPS-induced cell proliferation at 50 uM after 48 hrs by MTT assay relative to control; format: functional

Compound	Activity (Mus musculus [1])	Activity (Mus musculus [2])	Activity (Mus musculus [3])	Activity (Mus musculus [4])	Activity (Mus musculus [5])	Activity (Mus musculus [6])	inhibition at 100 µM [7]	inhibition at 100 µM [8]	inhibition at 10 µM [9]	inhibition at 1 µM [10]	inhibition (T-cell)	inhibition at 1 µM [11]	Activity [12]	inhibition (B)	inhibition at 10 µM [13]	Activity [14]	Activity [15]	Activity [16]	Activity [17]	inhibition at 50 µM [18]
CC1=C2[C@H]3OC(=O)[C@@H](C)[C@@H]3CC[C@@]2(C)C=CC1=O [SANTONIN]	Non-Toxic	Non-Toxic	Non-Toxic	Non-Toxic	Non-Toxic	Non-Toxic	6.09%	37.6%	26.8%	21.1%	Dose-dependent effect	39.4%	3.66%	Dose-dependent effect						
CC(=O)Oc1cc(C)c2c(c1C)C[C@H]([C@@H](C)C(=O)OCc1cn(Cc3ccc(Br)cc3)nn1)CC2	Toxic	Toxic	Non-Toxic	Toxic	Toxic	Non-Toxic	37.4%	38.7%	34.1%		Dose-dependent effect			Dose-dependent effect	33.9%	19.71%	14.15%			
CC(=O)Oc1cc(C)c2c(c1C)C[C@H]([C@@H](C)C(=O)OCc1cn(-c3ccc4c(c3)OCO4)nn1)CC2	Non-Toxic	Toxic	Non-Toxic	Non-Toxic	Toxic	Non-Toxic	32.4%	22.3%	33.9%	40.6%	Dose-dependent effect	27.8%	16.66%	Dose-dependent effect						
CC(=O)Oc1cc(C)c2c(c1C)C[C@H]([C@@H](C)C(=O)OCc1cn(-c3ccc(O)cc3C)nn1)CC2	Toxic	Non-Toxic	Non-Toxic	Toxic	Non-Toxic	Non-Toxic	54.7%	79.7%	77.1%	68.8%	Dose-dependent effect	22.7%	1.33%	Dose-dependent effect						
CC(=O)Oc1cc(C)c2c(c1C)C[C@H]([C@@H](C)C(=O)OCc1cn(-c3ccccc3C#N)nn1)CC2	Toxic	Toxic	Toxic	Toxic	Toxic	Toxic	6.48%	25.1%	26.3%	40%	Dose-dependent effect			Dose-dependent effect	4.62%		12.96%			
CC(=O)Oc1cc(C)c2c(c1C)C[C@H]([C@@H](C)C(=O)OCc1cn(-c3cccc(C#N)c3)nn1)CC2	Toxic	Non-Toxic	Toxic	Toxic	Non-Toxic	Toxic	45.4%					20.4%			25.9%	8%		37.71%	42.28%	
CC(=O)Oc1cc(C)c2c(c1C)C[C@H]([C@@H](C)C(=O)O)CC2	Non-Toxic	Toxic	Toxic	Non-Toxic	Toxic	Toxic	75%	71.8%	57.2%	58.8%	Dose-dependent effect	31.8%		Dose-dependent effect	52.3%					75%
CC(=O)Oc1cc(C)c2c(c1C)C[C@H]([C@@H](C)C(=O)OCc1cn(-c3ccc(Cl)nc3)nn1)CC2	Non-Toxic	Toxic	Non-Toxic	Non-Toxic	Toxic	Non-Toxic	1.85%	33.7%	24%		Dose-dependent effect	17.6%		Dose-dependent effect	17.6%	9.71%				
COc1ccc(-n2cc(COC(=O)[C@H](C)[C@@H]3CCc4c(C)cc(OC(C)=O)c(C)c4C3)nn2)cc1	Toxic	Non-Toxic	Toxic	Toxic	Non-Toxic	Toxic	30.1%	15.4%	36.8%	42.3%	Dose-dependent effect	33.8%		Dose-dependent effect	36%					
CC(=O)Oc1cc(C)c2c(c1C)C[C@H]([C@@H](C)C(=O)OCc1cn(-c3ccc(Cl)cc3)nn1)CC2	Toxic	Non-Toxic	Toxic	Toxic	Non-Toxic	Toxic	13%	34.3%	25.1%	34.3%	Dose-dependent effect	37%		Dose-dependent effect	28.7%					
CC(=O)Nc1ccc(-n2cc(COC(=O)[C@H](C)[C@@H]3CCc4c(C)cc(OC(C)=O)c(C)c4C3)nn2)cc1	Toxic	Toxic	Toxic	Toxic	Toxic	Toxic	33.8%	39%	31.3%	24.2%	Dose-dependent effect	22.1%		Dose-dependent effect	50%					
